Tests used:
Assay type in all cases: physicochemical
[1] = Solubility test; conditions: for Amount of solvent for dissolving tested drug: about 10 mg tested drug
Procedure: It should be noted that each crystalline form of Form A, Form B and Form C has similar solubility properties. Hereinafter, Form A0, B0 and C were chosen only for illustrative purpose.
1. Solubility test of the crystalline Form A of Temozolomide (Form A0 prepared by the method of EXAMPLE 1). Solubility properties were assayed respectively by using DMSO, methanol, water, glacial acetic acid, 0.1M HCl, 0.1M NaOH and ethanol as the solvents.
2. Solubility test of the crystalline form B of Temozolomide (Form B0 prepared by the method of EXAMPLE 6). Solubility properties were assayed respectively by using DMSO, methanol, water, glacial acetic acid, 0.1M HCl, 0.1M NaOH and ethanol as the solvents.
3. Solubility test of the crystalline form C of Temozolomide (Form C prepared by the method of EXAMPLE 14). Solubility properties were assayed respectively by using DMSO, methanol, water, glacial acetic acid, 0.1M HCl, 0.1M NaOH and ethanol as the solvents.

[2] = Light exposure test (stability); conditions: for Stability in the light exposure test (conclusion): 4500±500Lx, 10 days; for Appearance and color / Content / Drying loss / Related substances: light intensity 4500±500Lx; for Related substances: HPLC
Procedure: (§1) In the following test, related substances were determined as follows: HPLC method was used and chromatographic conditions were as follows: C18 column using octadecylsilane bonded silica gel as the filler, isocratic elution using methanol: 0.5% glacial acetic acid solution (10:90) as the mobile phase, and detection wavelength was at 254 nm.
Crystalline form A of Temozolomide (Form A0 prepared by the method of EXAMPLE 1) was exposed under conditions of light intensity of 4500±500Lx, sampled and determined on the 5th and 10th day.
Crystalline form B of Temozolomide (Form B0 prepared by the method of EXAMPLE 6) was placed, exposed under conditions of light intensity of 4500±500Lx, sampled and determined on the 5th and 10th day.
Crystalline Form C of Temozolomide (Form C prepared by the method of EXAMPLE 14) was placed, exposed under conditions of light intensity of 4500±500Lx, sampled and determined on the 5th and 10th day.

[3] = High temperature test (stability); conditions: for Appearance and color / Content / Drying loss / Related substances: 60° C. incubator; for Related substances: HPLC; for Stability in the high-temperature test (conclusion): 60° C., 10 days
Procedure: as §1
Crystalline form A of Temozolomide (Form A0 prepared by the method of EXAMPLE 1) was placed in 60° C. incubator, sampled and determined on the 5th and 10th day.
Crystalline Form B of Temozolomide (Form B0 prepared by the method of EXAMPLE 6) was placed in 60° C. incubator, sampled and determined on the 5th and 10th day.
Crystalline Form C of Temozolomide (Form C prepared by the method of EXAMPLE 14) was placed in 60° C. incubator, sampled and determined on the 5th and 10th day.

[4] = Accelerated test (stability); conditions: 40±2° C., relative humidity 75±5%; for Stability in the accelerated test (conclusion): 6 months; for Appearance and color / Content / Related substances: polyethylene film bag; for Related substances: HPLC
Procedure: as §1
Crystalline Form A of Temozolomide (Form A0 prepared by the method of EXAMPLE 1) was sealed by a polyethylene film bag, placed under conditions of 40±2° C. and a relative humidity of 75±5% for 6 months, sampled and determined at the end of the 1st,2nd, 3rd and 6th month.
Crystalline Form B of Temozolomide (Form B0 prepared by the method of EXAMPLE 6) was sealed with a polyethylene film bag and placed under conditions of 40±2° C. and a relative humidity of 75±5% for 6 months, sampled and determined at the end of the 1st, 2nd, 3rd and 6th month.
Crystalline Form C of Temozolomide (Form C prepared by the method of EXAMPLE 14) was sealed with a polyethylene film bag and placed under conditions of 40±2° C. and a relative humidity of 75±5% for 6 months, sampled and determined at the end of the 1st, 2nd, 3rd and 6th month.

[5] = Stability test, overall conclusions; conditions: light exposure, high-temperature, high-humidity and accelerated tests
Procedure: as §1
It should be noted that each crystalline form of Form A, Form B and Form C has similar stability properties. Hereinafter, Form A0, Form B0 and Form C were chosen only for illustrative purpose.

Which results are given for `Cn1nnc2c(C(N)=O)ncn2c1=O` [Form A, Temozolomide]?
Amount of solvent for dissolving 1 g of tested drug ([1]; solvent 0.1M HCl): 700 mL; Solubility ([1]; solvent 0.1M HCl): Slightly soluble; Amount of solvent for dissolving tested drug ([1]; solvent 0.1M HCl): 7 mL; Amount of solvent for dissolving 1 g of tested drug ([1]; solvent 0.1M NaOH): 300 mL; Solubility ([1]; solvent 0.1M NaOH): Slightly soluble; Amount of solvent for dissolving tested drug ([1]; solvent 0.1M NaOH): 3 mL; Amount of solvent for dissolving 1 g of tested drug ([1]; solvent DMSO): 70 mL; Solubility ([1]; solvent DMSO): sparingly; Amount of solvent for dissolving tested drug ([1]; solvent DMSO): 0.7 mL; Amount of solvent for dissolving 1 g of tested drug ([1]; solvent Ethanol): 5500 mL; Solubility ([1]; solvent Ethanol): Very slightly; Amount of solvent for dissolving tested drug ([1]; solvent Ethanol): 55 mL; Amount of solvent for dissolving 1 g of tested drug ([1]; solvent Glacial acetic acid): 300 mL; Solubility ([1]; solvent Glacial acetic acid): Slightly soluble; Amount of solvent for dissolving tested drug ([1]; solvent Glacial acetic acid): 3.0 mL; Amount of solvent for dissolving 1 g of tested drug ([1]; solvent Methanol): 700 mL; Solubility ([1]; solvent Methanol): Slightly soluble; Amount of solvent for dissolving tested drug ([1]; solvent Methanol): 7.0 mL; Amount of solvent for dissolving 1 g of tested drug ([1]; solvent Water): 800 mL; Solubility ([1]; solvent Water): Slightly soluble; Amount of solvent for dissolving tested drug ([1]; solvent Water): 8.0 mL; Stability in the light exposure test (conclusion) [2]: stable; Appearance and color ([2]; 0th day): White powder; Content ([2]; 0th day): 99.94%; Drying loss ([2]; 0th day): 0.35%; Related substances ([2]; 0th day): Not detected; Appearance and color ([2]; 5th day): White powder; Content ([2]; 5th day): 99.93%; Drying loss ([2]; 5th day): 0.33%; Related substances ([2]; 5th day): Not detected; Appearance and color ([2]; 10th day): White powder; Content ([2]; 10th day): 99.81%; Drying loss ([2]; 10th day): 0.39%; Related substances ([2]; 10th day): Not detected; Appearance and color ([3]; 0th day): White powder; Content ([3]; 0th day): 99.94%; Drying loss ([3]; 0th day): 0.41%; Related substances ([3]; 0th day): Not detected; Appearance and color ([3]; 5th day): White powder; Content ([3]; 5th day): 99.63%; Drying loss ([3]; 5th day): 0.38%; Related substances ([3]; 5th day): Not detected; Appearance and color ([3]; 10th day): White powder; Content ([3]; 10th day): 99.31%; Drying loss ([3]; 10th day): 0.34%; Related substances ([3]; 10th day): Not detected; Stability in the high-temperature test (conclusion) [3]: stable; Stability in the accelerated test (conclusion) [4]: stable; Appearance and color ([4]; 0th month): White powder; Content ([4]; 0th month): 99.94%; Related substances ([4]; 0th month): Not detected; Appearance and color ([4]; 1st month): White powder; Content ([4]; 1st month): 99.81%; Related substances ([4]; 1st month): Not detected; Appearance and color ([4]; 2nd month): White powder; Content ([4]; 2nd month): 99.64%; Related substances ([4]; 2nd month): Not detected; Appearance and color ([4]; 3rd month): White powder; Content ([4]; 3rd month): 99.92%; Related substances ([4]; 3rd month): Not detected; Appearance and color ([4]; 6th month): White powder; Content ([4]; 6th month): 99.62%; Related substances ([4]; 6th month): Not detected; Change in the appearance and color, the drying loss, the content and the related substances [5]: no obvious change

Which “Amount of solvent for dissolving 1 g of tested drug” value (“Amount of solvent … of tested drug” below) ([1]; solvent 0.1M HCl) does the source give for `Cn1nnc2c(C(N)=O)ncn2c1=O` [Form B, Temozolomide] here?
The value was 800 mL.

What about the Solubility ([1]; solvent 0.1M HCl) of the same molecule?
The Solubility was “Slightly soluble”.

And the “Amount of solvent for dissolving tested drug” value ([1]; solvent 0.1M HCl)?
The value was 8 mL.

What about the “Amount of solvent … of tested drug” value ([1]; solvent 0.1M NaOH) of the same molecule?
Its value is 300 mL.

What about the Solubility ([1]; solvent 0.1M NaOH) of the same molecule?
Its Solubility is “Slightly soluble”.

What about the “Amount of solvent for dissolving tested drug” value ([1]; solvent 0.1M NaOH) of the same molecule?
Its value is 3 mL.

And the “Amount of solvent … of tested drug” value ([1]; solvent DMSO)?
Its value is 70 mL.

What about the Solubility ([1]; solvent DMSO) of the same molecule?
The Solubility was “sparingly”.

And the “Amount of solvent for dissolving tested drug” value ([1]; solvent DMSO)?
Its value is 0.6 mL.

And the “Amount of solvent … of tested drug” value ([1]; solvent Ethanol)?
Its value is 5700 mL.

What about the Solubility ([1]; solvent Ethanol) of the same molecule?
The Solubility was “Very slightly”.

And the “Amount of solvent for dissolving tested drug” value ([1]; solvent Ethanol)?
Its value is 57 mL.

What about the “Amount of solvent … of tested drug” value ([1]; solvent Glacial acetic acid) of the same molecule?
The value was 300 mL.

And the Solubility ([1]; solvent Glacial acetic acid)?
Its Solubility is “Slightly soluble”.

What about the “Amount of solvent for dissolving tested drug” value ([1]; solvent Glacial acetic acid) of the same molecule?
The value was 3.0 mL.

And the “Amount of solvent … of tested drug” value ([1]; solvent Methanol)?
The value was 900 mL.

What about the Solubility ([1]; solvent Methanol) of the same molecule?
The Solubility was “Slightly soluble”.

And the “Amount of solvent for dissolving tested drug” value ([1]; solvent Methanol)?
The value was 9.0 mL.

And the “Amount of solvent … of tested drug” value ([1]; solvent Water)?
The value was 800 mL.

What about the Solubility ([1]; solvent Water) of the same molecule?
Its Solubility is “Slightly soluble”.

And the “Amount of solvent for dissolving tested drug” value ([1]; solvent Water)?
The value was 8.0 mL.

And the “Stability in the light exposure test (conclusion)” value [2]?
The value was “stable”.

What about the Appearance and color ([2]; 0th day) of the same molecule?
Its Appearance and color is “White powder”.

What about the Content ([2]; 0th day) of the same molecule?
Its Content is 99.97%.

And the Drying loss ([2]; 0th day)?
Its Drying loss is 0.38%.

What about the Related substances ([2]; 0th day) of the same molecule?
Its Related substances is “Not detected”.

What about the Appearance and color ([2]; 5th day) of the same molecule?
The Appearance and color was “White powder”.

What about the Content ([2]; 5th day) of the same molecule?
The Content was 99.92%.

And the Drying loss ([2]; 5th day)?
Its Drying loss is 0.33%.

And the Related substances ([2]; 5th day)?
The Related substances was “Not detected”.

And the Appearance and color ([2]; 10th day)?
Its Appearance and color is “White powder”.

And the Content ([2]; 10th day)?
Its Content is 99.95%.

And the Drying loss ([2]; 10th day)?
The Drying loss was 0.29%.

And the Related substances ([2]; 10th day)?
The Related substances was “Not detected”.

What about the Appearance and color ([3]; 0th day) of the same molecule?
The Appearance and color was “White powder”.

What about the Content ([3]; 0th day) of the same molecule?
Its Content is 99.97%.

And the Drying loss ([3]; 0th day)?
The Drying loss was 0.33%.

What about the Related substances ([3]; 0th day) of the same molecule?
Its Related substances is “Not detected”.

And the Appearance and color ([3]; 5th day)?
The Appearance and color was “White powder”.

What about the Content ([3]; 5th day) of the same molecule?
The Content was 99.73%.

What about the Drying loss ([3]; 5th day) of the same molecule?
Its Drying loss is 0.27%.

What about the Related substances ([3]; 5th day) of the same molecule?
The Related substances was “Not detected”.

And the Appearance and color ([3]; 10th day)?
Its Appearance and color is “White powder”.

What about the Content ([3]; 10th day) of the same molecule?
Its Content is 99.61%.

What about the Drying loss ([3]; 10th day) of the same molecule?
The Drying loss was 0.29%.

What about the Related substances ([3]; 10th day) of the same molecule?
Its Related substances is “Not detected”.

And the “Stability in the high-temperature test (conclusion)” value [3]?
The value was “stable”.

What about the “Stability in the accelerated test (conclusion)” value [4] of the same molecule?
The value was “stable”.

And the Appearance and color ([4]; 0th month)?
The Appearance and color was “White powder”.

What about the Content ([4]; 0th month) of the same molecule?
The Content was 99.97%.

And the Related substances ([4]; 0th month)?
Its Related substances is “Not detected”.

What about the Appearance and color ([4]; 1st month) of the same molecule?
Its Appearance and color is “White powder”.

And the Content ([4]; 1st month)?
The Content was 99.71%.

What about the Related substances ([4]; 1st month) of the same molecule?
Its Related substances is “Not detected”.

And the Appearance and color ([4]; 2nd month)?
Its Appearance and color is “White powder”.

And the Content ([4]; 2nd month)?
Its Content is 99.82%.

And the Related substances ([4]; 2nd month)?
The Related substances was “Not detected”.

What about the Appearance and color ([4]; 3rd month) of the same molecule?
Its Appearance and color is “White powder”.

And the Content ([4]; 3rd month)?
The Content was 99.73%.

What about the Related substances ([4]; 3rd month) of the same molecule?
The Related substances was “Not detected”.

What about the Appearance and color ([4]; 6th month) of the same molecule?
Its Appearance and color is “White powder”.

And the Content ([4]; 6th month)?
The Content was 99.85%.

And the Related substances ([4]; 6th month)?
The Related substances was “Not detected”.

What about the “Change in the appearance and color, the drying loss, the content and the related substances” value [5] of the same molecule?
The value was “no obvious change”.

— patent US9714250B2, “Crystalline forms of temozolomide and the method for preparing same” (Jiangsu Tasly Diyi Pharmaceutical Co., Ltd., priority 2013, dated 2017)
